Measured values: patent US8703813B2, “Compound with spiro chiral carbon backbone, preparation method thereof, and pharmaceutical composition containing the same” (SNU R & DB Foundation, priority 2008, dated 2014)

Legend:
[1] = test system: Runx2, Osteocalcin, Msx2; experiment: Real time PCR of osteoblast differentiation mark factors; format: cell-based, mouse; settings: C3H/10T1/2 treated for 6 days, RTPCR
Method: An aliquot 116V and an aliquot 116VI extracted and partitioned from sponges are dissolved in a DMSO solvent, and used to treat the C3H/10T1/2 cell line, mesenchymal progenitor cells, at concentrations of 1, 2.5, 5, 10, and 20 ug/ml. […] Since then, the same experiment was performed on the compound (1163), the compound 2 (1162), the compound 3 (1161), and the compound 4 (1164), which were purely separated from the aliquots 116V and 116VI, and as a result, it could be confirmed that the osteoblast differentiation ability was increased in the compounds 1, 3, and 4. […] To study a mechanism with respect to osteoblast differentiation ability, the C3H/10T1/2 cell lines were treated with the compound 1 and the compound 4 for 6 days, respectively. […] Also, the C3H/10T1/2 cell lines were treated with the compound 1 and the compound 4 for 6 days, respectively. […] Furthermore, it could be ascertained that combining of Runx2 and TAZ proteins was increased by treatment of the compounds and thus the activity of Runx2-meditated transcription was increased. The compound 5, which is an ester derivative of the compound 1 (1163), was synthesized in order to prepare a material having more excellent bioactivity, and the structure of the compound 5 obtained thus was determined. […]

[2] = test system: C3H/10T1/2 cells; experiment: Adipocyte differentiation inhibitory ability (Oil Red O staining); format: cell-based, mouse
Method: C3H/10T1/2 cells, which are mouse mesenchymal progenitor cells purchased from ATCC, were diluted in DMEM (Dulbecco's Modified Eagle Medium) medium containing 5.958 g/L HEPES, 3.7 g/L sodium bicarbonate and 10% FBS (fetal bovine serum), and cultured in 24-well culture plates at a density of 4×10^4 cells/well, in the presence of 5% CO2 at 37° C. for 2 days. When the cultured cells were grown to 90˜100% confluency in the culture plates, the cells were cultured in DMEM medium containing 10% FBS, to which 5μ/ml insulin, 1 μM dexamethason, and 5 μM troglitazone were added, in the presence of 5% CO2 at 37° C. for 8 days, to induce differentiation into adipocyte. The medium was exchanged every other day during differentiation. The C3H/10T1/2 cell line, in which differentiation into the adipocyte was induced, was fixed with 3.7% formaldehyde at room temperature for 30 minutes. An oil Red O solution dissolved in isopropanol at a concentration of 0.5% was diluted in distilled water at a ratio of 6:4, filtered through a 0.2 μm filter, and poured to the fixed cell line, which was stained for 1 hour. In order to observe only the cells differentiated into the adiopocyte, the dye solution was removed and the cells were washed with distilled water two times.
116V specimen extracted from sponge was dissolved in DMSO solvent, and allowed to treat C3H/10T1/2 cell lines, which are mouse mesenchymal progenitor cells, at concentrations of 1, 2.5, 5, 10, and 20 μg/ml. […] Then, after specimens of the compound 1 (1163), the compound 2 (1162), the compound 3 (1161), and the compound 4 (1164), which were purely separated from the 116V and 116VI species were obtained, the same experiment was performed. […] Remarkable cytotoxicity was not observed in each of the specimens during differentiation of adipocytes (FIG. 8).

[3] = test system: LXR protein; experiment: Biacore direct binding experiment
[4] = Cytotoxicity, Cell Titer-Glo cell viability; format: cell-based, mouse; settings: primary mouse spleen cells; mouse spleen cells, 16-18 hours
Method: (§1) Spleen cells of a mouse were used in measurement of cytotoxicity in […] cells. The spleen cells of the mouse were prepared as follows. The spleen from a 5˜6-week age mouse was finely minced, and only floating spleen cells were filtered through a net having a pore size of 100 μm. Erythrocytes mixed with the spleen cells were lysed by using erythrocyte lysis buffer, and then removed by centrifugation, precipitation and washing of the cells. The prepared spleen cells were seeded in 96-well plates at a concentration of 5×10^5 cells/well. Here, the spleen cells were treated with the compound of Formula 1 for measurement of toxicity according to the concentrations. The next day, the cells cultured for 16-18 hours were treated with Cell Titer-Glo Luminescent Cell Viability Assay (Promega), and after 10 minutes, cell viability was measured using the luminometer.

[5] = test system: mouse spleen cells; experiment: Cytotoxicity, Cell Titer-Glo cell viability; format: cell-based; settings: mouse spleen cells vs LXR
Method: as §1

[6] = test system: AML12 cells; experiment: Gene expression regulation in liver cells (real-time PCR); format: cell-based; settings: AML12 mouse liver cells, 1 μM alone or with 500 nM T0901317, 18 hours
Method: (§2) In order to verify efficacy of the developed liver-X-receptor antagonist, the function of regulating gene expression was identified in mouse liver cells and human liver cells. In the present experiment, mouse liver cells, AML 12 cells and human liver cells, and HepG2 cells were used. AML12 cells were cultured in DMEM medium within a cell incubator with 5% carbon dioxide at 37° C. The medium contained 10% fetal bovine serum (FBS), 100 U/ml penicillin, and 100 μg/ml streptomycin. On day 1 of the experiment, AML12 cells are seeded in 6 well plates. On day 2, when the cells were grown to 80% confluency, the medium was replaced by the DMEM medium not containing serum, and then three wells per treatment group were treated with TO901317 and the developed liver-X-receptor antagonist. […] The extracted RNAs were quantified, and 1 μg of the extracted RNAs per each sample were used in cDNA synthesis. […] The cDNAs synthesized for the real-time polymerase chain reaction were mixed with primer selective for ACC1 or Actine gene and QuantiTech Master Mix (QIAGEN). […] The Ct values per each treatment group were compared with the Ct values of the negative control group, and the differences in expression amount of genes were calculated. […]

[7] = test system: HepG2 cells; experiment: as above; format: cell-based; settings: HepG2 human liver cells
Method: as §2

Compound: CC(C)=CCC/C(C)=C/[C@H]1CC(C)=C[C@@]2(C=C(CO)[C@@H]3CC(=O)C(C)=C[C@@H]3O2)O1 [Compound 1]
- transcription degree of differentiation mark factors (Runx2, Osteocalcin, Msx2, etc.) [1]: remarkably increased
- adipocyte differentiation inhibitory ability at low concentration ([2]; C3H/10T1/2, 1 μg/ml): remarkable adipocyte differentiation inhibitory ability
- adipocyte differentiation ability ([2]; C3H/10T1/2, 10 μg/ml): remarkably decreased
- direct binding with the LXR protein [3]: directly bound
- IC50 [4]: 63 µM
- cytotoxicity IC50 compared with antagonistic concentration against LXR [5]: ≥ 1000 times
- expression of fatty acid biosynthesis genes SREBP1c, ACC, and FAS [6]: inhibited the expression
- expression of fatty acid biosynthesis genes SREBP1c, ACC, and FAS [7]: inhibited the expression
